Experiments:
Format in all cases: cell-based
[1] = tested on: HepG2 (liver cancer); experiment: Antiproliferative activity (CCK-8 cell viability), HepG2; conditions: Homo sapiens, 72 h, read-out: Antiproliferative activity in cancerous cells, HepG2 (inhibition of cell growth); for inhibition at 3.3 µM: Compound concentration: 3.3 μM; for inhibition at 10 µM: Compound concentration: 10 μM
Outline: (§1)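 Growth inhibition graded in bands from percent viability against DMSO vehicle, read as CCK-8 absorbance at 450 nm. Compound tested at 3.3, 10 or 30 μM for 72 h, 37 °C; media contained 10% FBS: DMEM for HepG2/SW480, MEM for HeLa, F-12K for A549.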

[2] = tested on: A431 (epidermoid carcinoma); experiment: Antiproliferative activity (CCK-8 cell viability), A431; conditions: Homo sapiens, 72 h, read-out: Antiproliferative activity in cancerous cells, A431 (inhibition of cell growth); for inhibition at 3.3 µM: A-431, Compound concentration: 3.3 μM; for inhibition at 10 µM: A-431, Compound concentration: 10 μM
Outline: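 This growth inhibition assay used A431 cells maintained in Dulbecco's modified Eagle's medium plus 10% fetal bovine serum. Cells were seeded in 96-well plates, treated with compound for 72 h at 37° C., and then given 10 μL CCK-8 solution. After a further 4 h, absorbance was read at 450 nm.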

[3] = tested on: HeLa (cervical cancer); experiment: Antiproliferative activity (CCK-8 cell viability), HeLa; conditions: Homo sapiens, 72 h, read-out: Antiproliferative activity in cancerous cells, HELA (inhibition of cell growth); for inhibition at 3.3 µM: Compound concentration: 3.3 μM; for inhibition at 10 µM: Compound concentration: 10 μM
Outline: as §1

[4] = tested on: SW480 (colon cancer); experiment: Antiproliferative activity (CCK-8 cell viability), SW480; conditions: Homo sapiens, 72 h, read-out: Antiproliferative activity in cancerous cells, SW480 (inhibition of cell growth); for inhibition at 3.3 µM: Compound concentration: 3.3 μM; for inhibition at 10 µM: Compound concentration: 10 μM
Outline: as §1

[5] = tested on: B16F10 (malignant melanoma); experiment: Antiproliferative activity (CCK-8 cell viability), B16F10; conditions: Mus musculus, 72 h, read-out: Antiproliferative activity in cancerous cells, B16F10 (inhibition of cell growth); for inhibition at 3.3 µM: B16-F10, Compound concentration: 3.3 μM; for inhibition at 10 µM: B16-F10, Compound concentration: 10 μM
Outline: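 Cell growth inhibition was measured in B16F10 malignant melanoma cells with a Cell Counting Kit-8 viability assay. Cells were maintained in DMEM plus 10% fetal bovine serum, seeded at 2,000-5,000 cells/well in 96-well plates, and treated for 72 h at 37° C. Viability was expressed relative to DMSO-treated vehicle control wells.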

[6] = tested on: MDA-MB-231 (breast cancer); experiment: Antiproliferative activity (CCK-8 cell viability), MDA-MB-231; conditions: Homo sapiens, 72 h, read-out: Antiproliferative activity in cancerous cells, MDA-MB-231 (inhibition of cell growth); for inhibition at 3.3 µM: Compound concentration: 3.3 μM; for inhibition at 10 µM: Compound concentration: 10 μM
Outline: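 Growth inhibition of human MDA-MB-231 breast cancer cells was assessed with a Cell Counting Kit-8. Cells cultured in DMEM plus 10% FBS were seeded at 2,000-5,000 cells/well, treated after attachment, and kept 72 h at 37° C. CCK-8 solution (10 μL) was added for 4 h, and absorbance at 450 nm was compared with DMSO-treated controls.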

[7] = tested on: A549 (lung adenocarcinoma); experiment: Antiproliferative activity (CCK-8 cell viability), A549; conditions: Homo sapiens, 72 h, read-out: Antiproliferative activity in cancerous cells, A549 (inhibition of cell growth); for inhibition at 3.3 µM: Compound concentration: 3.3 μM; for inhibition at 10 µM: Compound concentration: 10 μM
Outline: as §1

CC1=C(CC(=O)O)c2cc(F)ccc2/C1=C\c1cccc(Oc2ccc(F)c(F)c2)c1 [C98, (Z)-2-(1-(3-(3,4-Difluorophenoxy)benzylidene)-5-fluoro-2-methyl-1H-inden-3-yl)acetic acid]
inhibition at 3.3 µM [1]: < 30%
inhibition at 10 µM [1]: ≥ 50%
inhibition at 3.3 µM [2]: < 30%
inhibition at 10 µM [2]: 30 to 50%
inhibition at 3.3 µM [3]: < 30%
inhibition at 10 µM [3]: ≥ 50%
inhibition at 3.3 µM [4]: < 30%
inhibition at 10 µM [4]: < 30%
inhibition at 3.3 µM [5]: 30 to 50%
inhibition at 10 µM [5]: ≥ 50%
inhibition at 3.3 µM [6]: < 30%
inhibition at 10 µM [6]: 30 to 50%
inhibition at 3.3 µM [7]: < 30%
inhibition at 10 µM [7]: < 30%

CC1=C(CC(=O)O)c2cc(F)ccc2/C1=C\c1cccc(Oc2ccc3ccccc3c2)c1 [C99, (Z)-2-(5-Fluoro-2-methyl-1-(3-(naphthalen-2-yloxy)benzylidene)-1H-inden-3-yl)acetic acid]
inhibition at 3.3 µM [1]: < 30%
inhibition at 10 µM [1]: ≥ 50%
inhibition at 3.3 µM [2]: < 30%
inhibition at 10 µM [2]: < 30%
inhibition at 3.3 µM [3]: < 30%
inhibition at 10 µM [3]: ≥ 50%
inhibition at 3.3 µM [4]: < 30%
inhibition at 10 µM [4]: < 30%
inhibition at 3.3 µM [5]: ≥ 50%
inhibition at 10 µM [5]: ≥ 50%
inhibition at 3.3 µM [6]: < 30%
inhibition at 10 µM [6]: 30 to 50%
inhibition at 3.3 µM [7]: < 30%
inhibition at 10 µM [7]: < 30%

CC1=C(CC(=O)O)c2cc(F)ccc2/C1=C\c1cccc(Oc2ccc(I)cc2)c1 [C100, (Z)-2-(5-Fluoro-1-(3-(4-iodophenoxy)benzylidene)-2-methyl-1H-inden-3-yl)acetic acid]
inhibition at 3.3 µM [1]: < 30%
inhibition at 10 µM [1]: ≥ 50%
inhibition at 3.3 µM [2]: < 30%
inhibition at 10 µM [2]: < 30%
inhibition at 3.3 µM [3]: < 30%
inhibition at 10 µM [3]: ≥ 50%
inhibition at 3.3 µM [4]: < 30%
inhibition at 10 µM [4]: < 30%
inhibition at 3.3 µM [5]: < 30%
inhibition at 10 µM [5]: 30 to 50%
inhibition at 3.3 µM [6]: < 30%
inhibition at 10 µM [6]: < 30%
inhibition at 3.3 µM [7]: < 30%
inhibition at 10 µM [7]: 30 to 50%

CC1=C(CC(=O)O)c2cc(F)ccc2/C1=C\c1cccc(Oc2cccc(Cl)c2)c1 [C101, (Z)-2-(1-(3-(3-Chlorophenoxy)benzylidene)-5-fluoro-2-methyl-1H-inden-3-yl)acetic acid]
inhibition at 3.3 µM [1]: < 30%
inhibition at 10 µM [1]: ≥ 50%
inhibition at 3.3 µM [2]: 30 to 50%
inhibition at 10 µM [2]: ≥ 50%
inhibition at 3.3 µM [3]: < 30%
inhibition at 10 µM [3]: 30 to 50%
inhibition at 3.3 µM [4]: < 30%
inhibition at 10 µM [4]: 30 to 50%
inhibition at 3.3 µM [5]: ≥ 50%
inhibition at 10 µM [5]: ≥ 50%
inhibition at 3.3 µM [6]: < 30%
inhibition at 10 µM [6]: < 30%
inhibition at 3.3 µM [7]: < 30%
inhibition at 10 µM [7]: < 30%

COc1ccc(Oc2cccc(/C=C3/C(C)=C(CC(=O)O)c4cc(F)ccc43)c2)cc1Cl [C102, (Z)-2-(1-(3-(3-Chloro-4-methoxyphenoxy)benzylidene)-5-fluoro-2-methyl-1H-inden-3-yl)acetic acid]
inhibition at 3.3 µM [1]: ≥ 50%
inhibition at 10 µM [1]: ≥ 50%
inhibition at 3.3 µM [2]: ≥ 50%
inhibition at 10 µM [2]: ≥ 50%
inhibition at 3.3 µM [3]: < 30%
inhibition at 10 µM [3]: ≥ 50%
inhibition at 3.3 µM [4]: < 30%
inhibition at 10 µM [4]: ≥ 50%
inhibition at 3.3 µM [5]: ≥ 50%
inhibition at 10 µM [5]: ≥ 50%
inhibition at 3.3 µM [6]: ≥ 50%
inhibition at 10 µM [6]: ≥ 50%
inhibition at 3.3 µM [7]: ≥ 50%
inhibition at 10 µM [7]: ≥ 50%

CC1=C(CC(=O)O)c2cc(F)ccc2/C1=C\c1cccc(Oc2ccc(O)c(Cl)c2)c1 [C103, (Z)-2-(1-(3-(3-Chloro-4-hydroxyphenoxy)benzylidene)-5-fluoro-2-methyl-1H-inden-3-yl)acetic acid]
inhibition at 3.3 µM [1]: < 30%
inhibition at 10 µM [1]: ≥ 50%
inhibition at 3.3 µM [2]: 30 to 50%
inhibition at 10 µM [2]: ≥ 50%
inhibition at 3.3 µM [3]: < 30%
inhibition at 10 µM [3]: ≥ 50%
inhibition at 3.3 µM [4]: < 30%
inhibition at 10 µM [4]: ≥ 50%
inhibition at 3.3 µM [5]: ≥ 50%
inhibition at 10 µM [5]: ≥ 50%
inhibition at 3.3 µM [6]: < 30%
inhibition at 10 µM [6]: ≥ 50%
inhibition at 3.3 µM [7]: 30 to 50%
inhibition at 10 µM [7]: ≥ 50%

CC1=C(CC(=O)O)c2cc(Cl)ccc2/C1=C\c1cccc(Oc2ccc(O)cc2)c1 [C104, (Z)-2-(5-Chloro-1-(3-(4-hydroxyphenoxy)benzylidene)-2-methyl-1H-inden-3-yl)acetic acid]
inhibition at 3.3 µM [1]: < 30%
inhibition at 10 µM [1]: ≥ 50%
inhibition at 3.3 µM [2]: ≥ 50%
inhibition at 10 µM [2]: ≥ 50%
inhibition at 3.3 µM [3]: ≥ 50%
inhibition at 10 µM [3]: ≥ 50%
inhibition at 3.3 µM [4]: < 30%
inhibition at 10 µM [4]: ≥ 50%
inhibition at 3.3 µM [5]: ≥ 50%
inhibition at 10 µM [5]: ≥ 50%
inhibition at 3.3 µM [6]: < 30%
inhibition at 10 µM [6]: ≥ 50%
inhibition at 3.3 µM [7]: < 30%
inhibition at 10 µM [7]: ≥ 50%

CC1=C(CC(=O)O)c2cc(Cl)ccc2/C1=C\c1cccc(Oc2ccc(C(F)(F)F)cc2)c1 [C105, (Z)-2-(5-Chloro-2-methyl-1-(3-(4-(trifluoromethyl)phenoxy)benzylidene)-1H-inden-3-yl)acetic acid]
inhibition at 3.3 µM [1]: ≥ 50%
inhibition at 10 µM [1]: ≥ 50%
inhibition at 3.3 µM [2]: ≥ 50%
inhibition at 10 µM [2]: ≥ 50%
inhibition at 3.3 µM [3]: ≥ 50%
inhibition at 10 µM [3]: ≥ 50%
inhibition at 3.3 µM [4]: ≥ 50%
inhibition at 10 µM [4]: ≥ 50%
inhibition at 3.3 µM [5]: ≥ 50%
inhibition at 10 µM [5]: ≥ 50%
inhibition at 3.3 µM [6]: ≥ 50%
inhibition at 10 µM [6]: ≥ 50%
inhibition at 3.3 µM [7]: ≥ 50%
inhibition at 10 µM [7]: ≥ 50%

CCc1ccc2c(c1)C(CC(=O)O)=C(C)/C2=C/c1cccc(Oc2ccc(C(F)(F)F)cc2)c1 [C106, (Z)-2-(5-Ethyl-2-methyl-1-(3-(4-(trifluoromethyl)phenoxy)benzylidene)-1H-inden-3-yl)acetic acid]
inhibition at 3.3 µM [1]: ≥ 50%
inhibition at 10 µM [1]: ≥ 50%
inhibition at 3.3 µM [2]: 30 to 50%
inhibition at 10 µM [2]: ≥ 50%
inhibition at 3.3 µM [3]: ≥ 50%
inhibition at 10 µM [3]: ≥ 50%
inhibition at 3.3 µM [4]: ≥ 50%
inhibition at 10 µM [4]: ≥ 50%
inhibition at 3.3 µM [5]: ≥ 50%
inhibition at 10 µM [5]: ≥ 50%
inhibition at 3.3 µM [6]: ≥ 50%
inhibition at 10 µM [6]: ≥ 50%
inhibition at 3.3 µM [7]: ≥ 50%
inhibition at 10 µM [7]: ≥ 50%

COc1cc(Oc2cccc(/C=C3/C(C)=C(CC(=O)O)c4cc(F)ccc43)c2)ccc1Cl [C107, (Z)-2-(1-(3-(4-Chloro-3-methoxyphenoxy)benzylidene)-5-fluoro-2-methyl-1H-inden-3-yl)acetic acid]
inhibition at 3.3 µM [1]: < 30%
inhibition at 10 µM [1]: ≥ 50%
inhibition at 3.3 µM [2]: ≥ 50%
inhibition at 10 µM [2]: ≥ 50%
inhibition at 3.3 µM [3]: < 30%
inhibition at 10 µM [3]: ≥ 50%
inhibition at 3.3 µM [4]: 30 to 50%
inhibition at 10 µM [4]: ≥ 50%
inhibition at 3.3 µM [5]: ≥ 50%
inhibition at 10 µM [5]: ≥ 50%
inhibition at 3.3 µM [6]: ≥ 50%
inhibition at 10 µM [6]: ≥ 50%
inhibition at 3.3 µM [7]: ≥ 50%
inhibition at 10 µM [7]: ≥ 50%

CC1=C(CC(=O)O)c2cc(Br)ccc2/C1=C\c1cccc(Oc2ccc(Cl)cc2)c1 [C108, (Z)-2-(5-Bromo-1-(3-(4-chlorophenoxy)benzylidene)-2-methyl-1H-inden-3-yl)acetic acid]
inhibition at 3.3 µM [1]: < 30%
inhibition at 10 µM [1]: ≥ 50%
inhibition at 3.3 µM [2]: ≥ 50%
inhibition at 10 µM [2]: ≥ 50%
inhibition at 3.3 µM [3]: < 30%
inhibition at 10 µM [3]: ≥ 50%
inhibition at 3.3 µM [4]: < 30%
inhibition at 10 µM [4]: 30 to 50%
inhibition at 3.3 µM [5]: ≥ 50%
inhibition at 10 µM [5]: ≥ 50%
inhibition at 3.3 µM [6]: ≥ 50%
inhibition at 10 µM [6]: ≥ 50%
inhibition at 3.3 µM [7]: < 30%
inhibition at 10 µM [7]: ≥ 50%

— patent publication US20260184663A1, “INDENE COMPOUNDS, PHARMACEUTICAL COMPOSITIONS THEREOF, AND THEIR THERAPEUTIC APPLICATIONS” (NucMito Pharmaceuticals co. Ltd., priority 2022, published 2026)
